Columns and labels:
Assay type in all cases: cell-based
[1] = test system: IL-15 production in keratinocytes; assay: IL-15 production in keratinocytes treated with oxytocin; conditions: 24 hours
Method: FIG. 4. Keratinocytes were treated with oxytocin for 24 hours.

[2] = test system: elastin production in fibroblasts; assay: Elastin production in fibroblasts treated with oxytocin; conditions: 72 hours
Method: FIG. 3. Fibroblasts were treated with oxytocin for 72 hours.

[3] = test system: collagen production in fibroblasts; assay: Collagen production in fibroblasts treated with oxytocin; conditions: 72 hours
Method: FIG. 2. Fibroblasts were treated with oxytocin for 72 hours.

CC[C@H](C)[C@@H]1NC(=O)[C@H](Cc2ccc(O)cc2)NC(=O)[C@@H](N)CSSC[C@@H](C(=O)N2CCC[C@H]2C(=O)N[C@@H](CC(C)C)C(=O)NCC(N)=O)NC(=O)[C@H](CC(N)=O)NC(=O)[C@H](CCC(N)=O)NC1=O [oxytocin]
increase in IL-15 production compared to untreated control ([1]; 25 ng/mL oxytocin): +50%
increase in IL-15 production compared to untreated control ([1]; 100 ng/mL oxytocin): +90%
increase in IL-15 production compared to untreated control ([1]; 5 μg/mL oxytocin): +121%
increase in IL-15 production compared to untreated control ([1]; 25 μg/mL oxytocin): +165%
increase in IL-15 production compared to untreated control ([1]; 100 μg/mL oxytocin): +331%
increase in elastin production compared to untreated control ([2]; 25 ng/mL oxytocin): +166%
increase in elastin production compared to untreated control ([2]; 100 ng/mL oxytocin): +127%
increase in elastin production compared to untreated control ([2]; 25 μg/mL oxytocin): +133%
increase in elastin production compared to untreated control ([2]; 100 μg/mL oxytocin): +117%
increase in collagen production compared to untreated control ([3]; 25 μg/mL oxytocin): +109%
increase in collagen production compared to untreated control ([3]; 100 μg/mL oxytocin): +117%

— patent US20250099364A1, “METHOD AND COMPOSITIONS FOR COSMETIC COMPOSITIONS” (MARY KAY INC., priority 2023, published 2025)
